Measurements: US8481028B2, “Compositions for preparing a coffee beverage comprising hydrolysed chlorogenic acid” (Nestec S.A., priority 2008, dated 2013)

Key:
[1] = tested on: Lactobacillus johnsonii (CNCM I-1225) fresh cells; experiment: Treatment of NESCAFE PROTECT with L. johnsonii fresh cells, HPLC of chlorogenic and phenolic acids
Description: (§1) Cells of L. johnsonii (CNCM I-1225) were grown (7.0 E08 cfu/ml) and centrifuged (5000 g, 10 min), the pellets were resuspended in phosphate buffer (50 mM, pH 7.0) at a concentration of 0.61 g/ml. […] Samples were withdrawn at different reaction times, centrifuged (3000 g, 5 min) and filtered through 0.45 μm pore size syringe filters (Millipore SLHA 025 BS) and analysed by HPLC.
A reaction control was run in parallel under the same reaction conditions but without bacteria.
(§2) Coffee samples were diluted to 1% w/w and analyzed by RP-HPLC on a CC 250/4 Nucleosil 100-5-C18 column (Macherey-Nagel). The eluent system was Millipore water, 0.1% TFA and CH3CN at a flow rate of 1 mL/min. The method allowed the simultaneous determination of caffeoyl quinic acids (CQA), feruloyl quinic acids (FQA), di-caffeoyl quinic acids (diCQA), feruloyl quinic acid-lactones, caffeic acid (CA) and ferulic acid (FA) (absorbance at 325 nm) using external standard calibration curves. Results were expressed relative to the reference at time 0 (t0) or to the reference at the same time without bacteria.

[2] = tested on: Lactobacillus johnsonii (CNCM I-1225) extract (lysed cells); experiment: Treatment of NESCAFE PROTECT with L. johnsonii extract (lysed cells), HPLC; format: biochemical
Description: as §1, with “g/ml. The cells were then lysed using the glass-beads method. 600 μl of cells preparation were put in screw-cap tubes and 600 μl of glass-beads were added at 0° C. The tubes were then put into a Mini-Beadbeater for 1 min of intense shaking, cooled in ice, and put another 1 min in the Mini-Beadbeater.” for “g/ml.”, “min),” for “min) and”
as §2

[3] = tested on: spray-dried preparation of Lactobacillus johnsonii (CNCM I-1225); experiment: Treatment of green coffee extract with spray-dried preparation of L. johnsonii, HPLC
Description: 30 mg of a dried green coffee extract was dissolved in 1 ml phosphate buffer (50 mM, pH 7.0) or in 1 ml water. To this solution, 10 mg of a spray-dried preparation of Lactobacillus johnsonii (3.3 E9 cfu/g) was added. The mixture was then incubated at 37° C. and samples were withdrawn at different reaction times. After centrifugation (3000 g, 5 min) and filtration (0.45 μm pore size syringe filters, Millipore SLHA 025 BS) the samples were analysed by HPLC.
as §2

[4] = tested on: concentrated preparation of Lactobacillus johnsonii (CNCM I-1225); experiment: Treatment of NESCAFE with concentrated preparation of L. johnsonii, HPLC
Description: 400 mg of NESCAFE SPECIAL FILTRE® (a dried extract of roasted coffee beans) were dissolved in 1 ml of boiling water and the solution was cooled to 37° C. at room temperature. To 250 μl of this coffee solution, different amounts of concentrated preparation of Lactobacillus johnsonii (50 μl, 100 μl, 350 μl, 750 μl) were added and the volume was adjusted to 1 ml with water. The mixtures were than incubated at 37° C. for 2 h and 4 h. After centrifugation (3000 g, 5 min) and filtration the samples were analysed by HPLC.
as §2

[5] = tested on: Lactobacillus johnsonii (CNCM I-1225); experiment: Treatment of coffee extracts with bacteria cells (L. johnsonii), HPLC
Description: as §2
(§3) Tested strains were harvested (centrifugation at 5000 g for 10 min) after having well reached stationary phase, corresponding to 16 hours of incubation in culture medium at 37° C. in anaerobic atmosphere without agitation. For a first activation of the strains, frozen stock cultures were inoculated in fresh media and grown overnight. This pre-culture was used to inoculate the culture.
(§4) After culture of bacteria and centrifugation, the pellets were resuspended in phosphate buffer (pH 7.0) at a concentration of 0.61 g/ml. To 200 μl of this cells preparation, 800 μl of a coffee solution (3%) was added and the mixture was incubated at 37° C. for 4 h, 16 h and 24 h.

[6] = tested on: Bifidobacterium lactis BB12 (CNCM I-3446); experiment: Treatment of coffee extracts with bacteria cells (B. lactis), HPLC
Description: as §2, §3, §4

[7] = tested on: Chlorogenate esterase; experiment: Incubation of coffee extracts with chlorogenate esterase, HPLC; format: biochemical, Aspergillus japonicus
Description: as §2
Chlorogenate esterase (24 U/g), derived from Aspergillus japonicus (Kikkoman, Japan). Tannase from Aspergillus oryzae (Kikkoman, Japan) Preparation of Bacteria Cells
A solution of chlorogenate esterase (25 mg) in 200 μl phosphate buffer (pH 7.0) was added to 800 μl of a coffee solution (3%). The mixture was then incubated at 37° C. for 4 h, 16 h and 24 h. After reaction time, the enzymatic activity was stopped by heat treatment (3 min, 90° C.) and the mixture was filtered before analysis.

[8] = tested on: spray-dried preparation of Lactobacillus johnsonii (CNCM I-1225); experiment: Treatment of NESCAFE PROTECT with spray-dried preparation of L. johnsonii, HPLC
Description: To this solution, 10 mg of a spray-dried preparation of Lactobacillus johnsonii (CNCM I-1225) (3.3 E9 cfu/g) were added. The mixture was then incubated at 37° C. and samples were withdrawn at different reaction times. After centrifugation (3000 g, 5 min) and filtration (0.45 μm pore size syringe filters, Millipore SLHA 025 BS) the samples were analysed by HPLC.
as §2

[9] = NESCAFE PROTECT + Lactobacillus johnsonii, 4 h
[10] = NESCAFE PROTECT + Lactobacillus johnsonii, 16 h
[11] = NESCAFE PROTECT + Lactobacillus johnsonii, 24 h
[12] = green coffee extract + Lactobacillus johnsonii, 4 h
[13] = green coffee extract + Lactobacillus johnsonii, 16 h
[14] = green coffee extract + Lactobacillus johnsonii, 24 h
[15] = NESCAFE PROTECT + Bifidobacterium lactis, 4 h
[16] = NESCAFE PROTECT + Bifidobacterium lactis, 16 h
[17] = NESCAFE PROTECT + Bifidobacterium lactis, 24 h
[18] = green coffee extract + Bifidobacterium lactis, 4 h
[19] = green coffee extract + Bifidobacterium lactis, 16 h
[20] = green coffee extract + Bifidobacterium lactis, 24 h
[21] = NESCAFE PROTECT + Chlorogenate esterase, 4 h
[22] = NESCAFE PROTECT + Chlorogenate esterase, 16 h
[23] = NESCAFE PROTECT + Chlorogenate esterase, 24 h
[24] = green coffee extract + Chlorogenate esterase, 4 h
[25] = green coffee extract + Chlorogenate esterase, 16 h
[26] = green coffee extract + Chlorogenate esterase, 24 h

di-caffeoyl quinic acids [diCQA]
Concentration in % relative to untreated reference at t = 0 ([1]; 6 h, cell preparation 100 uL): 23%
Concentration in % relative to untreated reference at t = 0 ([1]; 6 h, cell preparation 350 uL): 0%
Concentration in % relative to untreated reference at t = 0 ([1]; 6 h, cell preparation 750 uL): 0%
Concentration in % relative to untreated reference at t = 0 ([1]; 24 h, cell preparation 100 uL): 2%
Concentration in % relative to untreated reference at t = 0 ([1]; 24 h, cell preparation 350 uL): 0%
Concentration in % relative to untreated reference at t = 0 ([1]; 24 h, cell preparation 750 uL): 0%
Concentration in % relative to untreated reference at t = 0 ([2]; 2 h, cell preparation 100.0 uL): 8%
Concentration in % relative to untreated reference at t = 0 ([2]; 2 h, cell preparation 350.0 uL): 1%
Concentration in % relative to untreated reference at t = 0 ([2]; 6 h, cell preparation 100.0 uL): 1%
Concentration in % relative to untreated reference at t = 0 ([2]; 6 h, cell preparation 350.0 uL): 1%
% relative to untreated control at t = 0 ([3]; 4 h): 67%
% relative to untreated control at t = 0 ([3]; 6 h): 53%
% relative to untreated control at t = 0 ([3]; 16 h): 32%
% relative to untreated control at t = 0 ([3]; 24 h): 20%
% relative to untreated control at t = 0 ([4]; cell amount 50 μL/1 mL, 2 h): 86%
% relative to untreated control at t = 0 ([4]; cell amount 50 μL/1 mL, 4 h): 75%
% relative to untreated control at t = 0 ([4]; cell amount 100 μL/1 mL, 2 h): 68%
% relative to untreated control at t = 0 ([4]; cell amount 100 μL/1 mL, 4 h): 56%
% relative to untreated control at t = 0 ([4]; cell amount 350 μL/1 mL, 2 h): 23%
% relative to untreated control at t = 0 ([4]; cell amount 350 μL/1 mL, 4 h): 15%
% relative to untreated control at t = 0 ([4]; cell amount 750 μL/1 mL, 2 h): 6%
% relative to untreated control at t = 0 ([4]; cell amount 750 μL/1 mL, 4 h): 6%
% relative to untreated control at t = 0 [5, 9]: 18%
% relative to untreated control at t = 0 [5, 10]: 2%
% relative to untreated control at t = 0 [5, 11]: 2%
% relative to untreated control at t = 0 [5, 12]: 35%
% relative to untreated control at t = 0 [5, 13]: 6%
% relative to untreated control at t = 0 [5, 14]: 3%
% relative to untreated control at t = 0 [6, 15]: 91%
% relative to untreated control at t = 0 [6, 16]: 72%
% relative to untreated control at t = 0 [6, 17]: 67%
% relative to untreated control at t = 0 [6, 18]: 85%
% relative to untreated control at t = 0 [6, 19]: 70%
% relative to untreated control at t = 0 [6, 20]: 64%
% relative to untreated control at t = 0 [7, 21]: 0%
% relative to untreated control at t = 0 [7, 22]: 0%
% relative to untreated control at t = 0 [7, 23]: 1%
% relative to untreated control at t = 0 [7, 24]: 0%
% relative to untreated control at t = 0 [7, 25]: 0%
% relative to untreated control at t = 0 [7, 26]: 0%

COc1cc(/C=C/C(=O)O)ccc1O [FA, ferulic acid]
Concentration in % relative to untreated reference at t = 0 ([1]; 6 h, cell preparation 100 uL): 4594%
Concentration in % relative to untreated reference at t = 0 ([1]; 6 h, cell preparation 350 uL): 7234%
Concentration in % relative to untreated reference at t = 0 ([1]; 6 h, cell preparation 750 uL): 7776%
Concentration in % relative to untreated reference at t = 0 ([1]; 24 h, cell preparation 100 uL): 6691%
Concentration in % relative to untreated reference at t = 0 ([1]; 24 h, cell preparation 350 uL): 8861%
Concentration in % relative to untreated reference at t = 0 ([1]; 24 h, cell preparation 750 uL): 8845%
Concentration in % relative to untreated reference at t = 0 ([2]; 2 h, cell preparation 100.0 uL): 5581%
Concentration in % relative to untreated reference at t = 0 ([2]; 2 h, cell preparation 350.0 uL): 7771%
Concentration in % relative to untreated reference at t = 0 ([2]; 6 h, cell preparation 100.0 uL): 6960%
Concentration in % relative to untreated reference at t = 0 ([2]; 6 h, cell preparation 350.0 uL): 9720%
% relative to untreated control at t = 0 ([8]; 2 h): 1109%
% relative to untreated control at t = 0 ([8]; 6 h): 2183%
% relative to untreated control at t = 0 ([8]; 24 h): 3686%
% relative to untreated control at t = 0 ([3]; 4 h): 961%
% relative to untreated control at t = 0 ([3]; 6 h): 1429%
% relative to untreated control at t = 0 ([3]; 16 h): 1963%
% relative to untreated control at t = 0 ([3]; 24 h): 2432%
% relative to untreated control at t = 0 ([4]; cell amount 50 μL/1 mL, 2 h): 1509%
% relative to untreated control at t = 0 ([4]; cell amount 50 μL/1 mL, 4 h): 786%
% relative to untreated control at t = 0 ([4]; cell amount 100 μL/1 mL, 2 h): 2468%
% relative to untreated control at t = 0 ([4]; cell amount 100 μL/1 mL, 4 h): 1266%
% relative to untreated control at t = 0 ([4]; cell amount 350 μL/1 mL, 2 h): 5327%
% relative to untreated control at t = 0 ([4]; cell amount 350 μL/1 mL, 4 h): 2408%
% relative to untreated control at t = 0 ([4]; cell amount 750 μL/1 mL, 2 h): 7586%
% relative to untreated control at t = 0 ([4]; cell amount 750 μL/1 mL, 4 h): 3281%
% relative to untreated control at t = 0 [5, 9]: 4051%
% relative to untreated control at t = 0 [5, 10]: 5226%
% relative to untreated control at t = 0 [5, 11]: 5504%
% relative to untreated control at t = 0 [5, 12]: 4607%
% relative to untreated control at t = 0 [5, 13]: 7192%
% relative to untreated control at t = 0 [5, 14]: 7597%
% relative to untreated control at t = 0 [6, 15]: 3065%
% relative to untreated control at t = 0 [6, 16]: 4518%
% relative to untreated control at t = 0 [6, 17]: 5144%
% relative to untreated control at t = 0 [6, 18]: 5020%
% relative to untreated control at t = 0 [6, 19]: 6970%
% relative to untreated control at t = 0 [6, 20]: 7105%
% relative to untreated control at t = 0 [7, 21]: 2794%
% relative to untreated control at t = 0 [7, 22]: 5140%
% relative to untreated control at t = 0 [7, 23]: 5518%
% relative to untreated control at t = 0 [7, 24]: 2620%
% relative to untreated control at t = 0 [7, 25]: 5685%
% relative to untreated control at t = 0 [7, 26]: 6293%
